Assay results: patent US9175036B2, “Antimicrobial water treatment membranes and production thereof” (BEN-GURION UNVERSITY OF THE NEGEV RESEARCH AND DEVELOPMENT …, priority 2009, dated 2015)
≈ marks a conversion by molar mass, not a printed value. Where two headings read alike, the source gives them in different places. Square brackets hold non-standard residues; d marks the D form. Peptide text beside a SMILES is read from it. Ahx = NCCCCCC(=O)O

System: Enterobacter
Format: cell-based
Experimental: The IC50 is determined by an essay, suitable for the specific film-forming microorganism in question. For example, in the present invention, the Enterobacter assay, which is described in detail in the methods section below, was used to determine the antimicrobial activities of the tested peptides.
Quantitative Biofilm Growth Inhibition Assay in a 96-Wells Microtiter Plate:
Enterobacter culture (50 ml) was grown in tryptic soy broth media (TBS; prepared according to manufacturer instructions) overnight at 25° C. On the next day the turbidity of the culture was measured at 600 nm (Biomate 5 UV-Vis spectrophotometer, Thermo Fisher Scientific, Waltham, Mass.) and, if necessary, TSB was added to dilute the culture until the OD was 1.
Then 96 wells polystyrene microtiter plates (flat bottom, transparent, Becton Dickinson, Franklin Lakes, New-Jersey) were filled as following: Negative control wells (without bacteria) were filled with 125 μl TSB media and 25 μl of DDW:PBS1:1 buffer solution; Positive control wells (without peptide solution) were filled with 110 μl TSB media, 25 μl of DDW:PBS1:1 buffer solution and 15 μl of Enterobacter culture solution; Wells that contained AMPs at different concentrations were filled with 110 μl TSB media, 25 μl of peptide solution and 15 μl of Enterobacter culture solution.
The plates were incubated at 25° C. overnight. On the next day the plates were gently rinsed 5 times with distilled water to remove the planktonic bacteria and then dried at room temperature for 10 minutes. Then the biofilm on the walls of the wells was dyed by adding 200 μl, of 3% crystal violet (CV) to the wells. After 15 minutes at room temperature, the plates were gently rinsed 5 times with distilled water to remove excess dye and dried at room temperature for 10 minutes (Djordjevic, Wiedmann & McLandsborough 2002). The dry plates were filled with 200 μl ethanol, covered and gently agitated (Duomax 1030 rocking platform shaker, Heidolph, Kelheim, Germany) for 1 hour. The absorbance of extracted color was measured in a plate reading spectrophotometer (Infinite M200, Tecan, Mannedorf, Switzerland) at 595 nm.
The effect of linking the arm to a peptide, on the antimicrobial activity of the peptides was assessed by measuring the peptide activity in 96-microtitter plates in solution and comparing to activities of the normal peptides. Experiments were performed in water and in 3% NaCl solution. Table 6 presents the antimicrobial activity (IC50) of peptide-arm systems, in water and in 3% NaCl solution. Values were extracted from dose-response curves.
Different concentration solutions of peptides, bought or prepared as detailed in the methods section above, were prepared by diluting a stock solution with 1% ACN. Stock solution was prepared by dissolving water soluble peptides in DDW:PBS1:1. PBS (pH=7.4) was prepared by adding to 800 ml DDW, 8 grams NaCl, 0.2 grams KCl, 1.44 grams Na2HPO4 and 0.2 grams KH2PO4.
To evaluate whether attachment of a tether to the AMPs has an effect on the inhibitory potency, a PEGylated peptide (HS-PEG-D-Modelin-1) was prepared, and its inhibitory potency compared to that of the ‘normal’ peptide All-D-Modelin-1. Peptides were diluted in 2-fold serial dilutions, and the antibacterial activity of the peptides was determined in sterile 96-multititter plates.

[1] = peptide in solution, water, 96-microtitter plates, values extracted from dose-response curves

| IC50 in 3% Aqueous NaCl | SMILES | IC50 Normal conditions [1] | IC50 in 3% Aqueous NaCl (peptide in solution, 3% NaCl solution, 96-microtitter plates, values extracted from dose-response curves) | IC50 Normal conditions |
| --- | --- | --- | --- | --- |
|  | CC[C@H](C)[C@H](NC(=O)[C@H](CCCNC(=N)N)NC(=O)CNC(=O)[C@H](CC(C)C)NC(=O)[C@H](Cc1ccccc1)NC(=O)[C@H](CCCCN)NC(=O)[C@H](CO)NC(=O)[C@H](Cc1ccccc1)NC(=O)[C@H](Cc1c[nH]c2ccccc12)NC(=O)[C@H](CCC(N)=O)NC(=O)[C@@H](NC(=O)[C@H](Cc1ccccc1)NC(=O)CCCCCNC(=O)[C@@H](N)CS)C(C)C)C(=O)N[C@@H](CC(C)C)C(N)=O [CX-Temporin-L, CXFVQWFSKFLGRIL-NH2] (H-C[Ahx]FVQWFSKFLGRIL-NH2) | >300 µg/mL |  |  |
|  | CC(C)C[C@H](NC(=O)[C@H](CCCCN)NC(=O)[C@H](CC(C)C)NC(=O)[C@H](Cc1c[nH]c2ccccc12)NC(=O)[C@H](CCCCN)NC(=O)[C@H](CCCCN)NC(=O)[C@H](C)NC(=O)[C@H](Cc1c[nH]c2ccccc12)NC(=O)[C@H](CCCCN)NC(=O)[C@H](CCCCN)NC(=O)[C@H](Cc1c[nH]c2ccccc12)NC(=O)[C@H](CC(C)C)NC(=O)[C@@H](N)CCCCN)C(=O)N[C@@H](Cc1c[nH]c2ccccc12)C(=O)N[C@@H](CCCCN)C(=O)N[C@@H](C)C(=O)N[C@@H](Cc1c[nH]c2ccccc12)C(=O)O [Modelin-1, KLWKKWAKKWLKLWKAW, reference compound] | 20 µg/mL (≈ 8.59 µM) | 100 µg/mL (≈ 43 µM) |  |
| 300 µg/mL (≈ 140 µM) | CC(C)C[C@H](NC(=O)[C@H](CCCCN)NC(=O)[C@H](Cc1ccccc1)NC(=O)[C@H](CC(C)C)NC(=O)[C@H](CC(C)C)NC(=O)CNC(=O)[C@H](CCCCN)NC(=O)[C@H](CC(C)C)NC(=O)[C@H](CCCCN)NC(=O)[C@@H]1CCCN1C(=O)[C@H](CC(C)C)NC(=O)[C@H](CC(C)C)NC(=O)[C@H](CC(C)C)NC(=O)[C@H](CCCCN)NC(=O)[C@H](CC(C)C)NC(=O)[C@H](CC(C)C)NC(=O)[C@H](CCCCN)NC(=O)[C@@H](N)Cc1ccc(O)cc1)C(N)=O [L^6P^9G^13F^16, reference compound] (H-YKLLKLLLPKLKGLLFKL-NH2; N-terminus and C-terminus assumed) |  |  | 40 µg/mL (≈ 18.7 µM) |
|  | CC(C)C[C@H](NC(=O)[C@H](CCCCN)NC(=O)CCCCCNC(=O)[C@@H](N)CS)C(=O)N[C@@H](Cc1c[nH]c2ccccc12)C(=O)N[C@@H](CCCCN)C(=O)N[C@@H](CCCCN)C(=O)N[C@@H](Cc1c[nH]c2ccccc12)C(=O)N[C@@H](C)C(=O)N[C@@H](CCCCN)C(=O)N[C@@H](CCCCN)C(=O)N[C@@H](Cc1c[nH]c2ccccc12)C(=O)N[C@@H](CC(C)C)C(=O)N[C@@H](CCCCN)C(=O)N[C@@H](CC(C)C)C(=O)N[C@@H](Cc1c[nH]c2ccccc12)C(=O)N[C@@H](CCCCN)C(=O)N[C@@H](C)C(=O)N[C@@H](Cc1c[nH]c2ccccc12)C(=O)O [CX-Modelin-1, CXKLWKKWAKKWLKLWKAW] (H-C[Ahx]KLWKKWAKKWLKLWKAW-OH; N-terminus assumed) |  |  | 60 µg/mL (≈ 23.6 µM) |
| 120 µg/mL (≈ 46.9 µM) | CC(C)C[C@H](NC(=O)[C@H](CCCCN)NC(=O)CNC(=O)CNC(=O)CNC(=O)CN)C(=O)N[C@@H](Cc1c[nH]c2ccccc12)C(=O)N[C@@H](CCCCN)C(=O)N[C@@H](CCCCN)C(=O)N[C@@H](Cc1c[nH]c2ccccc12)C(=O)N[C@@H](C)C(=O)N[C@@H](CCCCN)C(=O)N[C@@H](CCCCN)C(=O)N[C@@H](Cc1c[nH]c2ccccc12)C(=O)N[C@@H](CC(C)C)C(=O)N[C@@H](CCCCN)C(=O)N[C@@H](CC(C)C)C(=O)N[C@@H](Cc1c[nH]c2ccccc12)C(=O)N[C@@H](CCCCN)C(=O)N[C@@H](C)C(=O)N[C@@H](Cc1c[nH]c2ccccc12)C(=O)O [Peptide G4-Modelin-1] (H-GGGGKLWKKWAKKWLKLWKAW-OH; N-terminus and C-terminus assumed) |  |  | 70 µg/mL (≈ 27.4 µM) |
